# Values quoted from earlier work as cited in patent publication US5250561A, “Tetrahydroindazole, tetrahydrocyclopentapyrazole, and hexahydrocycloheptapyrazole compounds and their use as HMG-COA reductase inhibitors” (Ortho Pharmaceutical Corporation, priority 1992, dated 1993).
# Legend:
# HMG-CoA reductase = conditions: lovastatin: open dihydroxy acid form; cited from earlier work
# [1] = cited from earlier work
SMILES,inhibition of HMG-CoA reductase (in words) (HMG-CoA reductase),effect of combined administration with other hypolipidemic agents on LDL and total cholesterol concentrations ([1]; combination),reduction of LDL cholesterol levels compared with cholestyramine and probucol ([1]; primary hypercholesterolemia),increase in high density lipoprotein (HDL) cholesterol concentration ([1]; several large clinical studies)
CCC(C)(C)C(=O)O[C@H]1C[C@@H](C)C=C2C=C[C@H](C)[C@H](CC[C@@H]3C[C@@H](O)CC(=O)O3)[C@H]21 [simvastatin],inhibitors of HMG-CoA reductase,–,–,–
CC[C@H](C)C(=O)O[C@H]1C[C@@H](C)C=C2C=C[C@H](C)[C@H](CC[C@@H]3C[C@@H](O)CC(=O)O3)[C@H]21 [lovastatin],"reversible, competitive inhibitor of the enzyme",potentiate their effects on LDL and total cholesterol concentrations,reduced LDL cholesterol levels to a significantly greater extent,up to 10%
